Results on 14 substances are retold here after the OligoGym collection.

HELM strings list units from the 5' end as sugar, base in round brackets, then linkage (d deoxyribose, r ribose, m 2'-O-methyl, p phosphodiester). Strings are as the collection lists them, not checked against the first reports. ss, as = sense and antisense strand
Further: test system not given here.

The conditions of this data set: siRNA.
The substance “RNA1{m(A)p.m(A)p.m(G)p.r(G)p.r(A)p.m(G)p.m(A)p.m(U)p.r(C)p.r(A)p.r(A)p.m(C)p.m(A)p.m(U)p.r(U)p.r(U)p.m(U)p.m(C)p.m(A)p.r(T)p.r(T)}|RNA2{m(U)p.m(G)p.m(A)p.r(A)p.r(A)p.m(A)p.m(U)p.m(G)p.r(U)p.r(U)p.r(G)p.m(A)p.m(U)p.m(C)p.r(U)p.r(C)p.m(C)p.m(U)p.m(U)p.r(T)p.r(T)}$$$RNA1{StrandType:ss}|RNA2{StrandType:as}$” yielded a target mRNA knockdown of 45%.

In the case of “RNA1{m(A)p.m(A)p.m(G)p.r(G)p.r(A)p.r(G)p.r(A)p.r(U)p.r(C)p.r(A)p.r(A)p.r(C)p.r(A)p.r(U)p.r(U)p.r(U)p.m(U)p.m(C)p.m(A)p.r(T)p.r(T)}|RNA2{m(U)p.m(G)p.m(A)p.r(A)p.r(A)p.r(A)p.r(U)p.r(G)p.r(U)p.r(U)p.r(G)p.r(A)p.r(U)p.r(C)p.r(U)p.r(C)p.m(C)p.m(U)p.m(U)p.r(T)p.r(T)}$$$RNA1{StrandType:ss}|RNA2{StrandType:as}$”, the target mRNA knockdown turned out to be 76%.

In the case of “RNA1{m(A)p.m(A)p.m(G)p.r(G)p.r(A)p.r(G)p.r(A)p.r(U)p.r(C)p.r(A)p.r(A)p.r(C)p.r(A)p.r(U)p.r(U)p.r(U)p.r(U)p.r(C)p.r(A)p.r(T)p.r(T)}|RNA2{m(U)p.m(G)p.m(A)p.r(A)p.r(A)p.r(A)p.r(U)p.r(G)p.r(U)p.r(U)p.r(G)p.r(A)p.r(U)p.r(C)p.r(U)p.r(C)p.r(C)p.r(U)p.r(U)p.r(T)p.r(T)}$$$RNA1{StrandType:ss}|RNA2{StrandType:as}$”, the target mRNA knockdown stood at 60%.

Substance “RNA1{m(A)p.m(A)p.r(C)p.r(C)p.r(C)p.m(A)p.r(C)p.r(C)p.m(A)p.r(C)p.m(A)p.r(G)p.r(C)p.m(U)p.m(A)p.r(G)p.m(A)p.m(A)p.r(C)p.m(U)p.m(U)}|RNA2{m(A)p.m(A)p.r(G)p.m(U)p.m(U)p.r(C)p.m(U)p.m(A)p.r(G)p.r(C)p.m(U)p.r(G)p.m(U)p.r(G)p.r(G)p.m(U)p.r(G)p.r(G)p.r(G)p.m(U)p.m(U)}$$$RNA1{StrandType:ss}|RNA2{StrandType:as}$” displayed a target mRNA knockdown of 7%.

“RNA1{m(A)p.m(A)p.r(C)p.r(C)p.r(C)p.m(A)p.r(C)p.r(C)p.m(A)p.r(C)p.m(A)p.r(G)p.r(C)p.m(U)p.m(A)p.r(G)p.m(A)p.m(A)p.r(C)p.m(U)p.m(U)}|RNA2{r(A)p.r(A)p.r(G)p.r(U)p.r(U)p.r(C)p.m(U)p.m(A)p.r(G)p.r(C)p.r(U)p.r(G)p.r(U)p.r(G)p.r(G)p.r(U)p.r(G)p.r(G)p.r(G)p.r(U)p.r(U)}$$$RNA1{StrandType:ss}|RNA2{StrandType:as}$” returned a target mRNA knockdown of 44%.

Take “RNA1{m(A)p.m(A)p.r(C)p.r(C)p.r(C)p.m(A)p.r(C)p.r(C)p.m(A)p.r(C)p.m(A)p.r(G)p.r(C)p.m(U)p.m(A)p.r(G)p.m(A)p.m(A)p.r(C)p.m(U)p.m(U)}|RNA2{r(A)p.r(A)p.r(G)p.r(U)p.r(U)p.r(C)p.r(U)p.r(A)p.r(G)p.r(C)p.r(U)p.r(G)p.r(U)p.r(G)p.r(G)p.r(U)p.r(G)p.r(G)p.r(G)p.r(U)p.r(U)}$$$RNA1{StrandType:ss}|RNA2{StrandType:as}$”: the target mRNA knockdown amounted to 51%.

Consider “RNA1{m(A)p.m(A)p.r(C)p.r(C)p.r(C)p.m(A)p.r(C)p.r(C)p.m(A)p.r(C)p.m(A)p.r(G)p.r(C)p.m(U)p.m(A)p.r(G)p.m(A)p.m(A)p.r(C)p.r(U)p.r(U)}|RNA2{r(A)p.r(A)p.r(G)p.r(U)p.r(U)p.r(C)p.m(U)p.r(A)p.r(G)p.r(C)p.r(U)p.r(G)p.r(U)p.r(G)p.r(G)p.r(U)p.r(G)p.r(G)p.r(G)p.r(U)p.r(U)}$$$RNA1{StrandType:ss}|RNA2{StrandType:as}$”, for which the target mRNA knockdown worked out at 32%.

In turn, “RNA1{m(A)p.m(A)p.r(C)p.r(C)p.r(C)p.m(A)p.r(C)p.r(C)p.m(A)p.r(C)p.m(A)p.r(G)p.r(C)p.r(U)p.m(A)p.r(G)p.m(A)p.m(A)p.r(C)p.m(U)p.m(U)}|RNA2{r(A)p.r(A)p.r(G)p.r(U)p.r(U)p.r(C)p.r(U)p.r(A)p.r(G)p.r(C)p.r(U)p.r(G)p.r(U)p.r(G)p.r(G)p.r(U)p.r(G)p.r(G)p.r(G)p.r(U)p.r(U)}$$$RNA1{StrandType:ss}|RNA2{StrandType:as}$” returned a target mRNA knockdown of 42%.

Take “RNA1{m(A)p.m(A)p.r(U)p.m(A)p.m(A)p.m(G)p.r(C)p.m(A)p.m(G)p.r(C)p.r(U)p.r(C)p.m(G)p.r(C)p.m(G)p.r(C)p.r(U)p.r(C)p.r(C)p.r(T)p.r(T)}|RNA2{r(G)p.r(G)p.r(A)p.r(G)p.r(C)p.r(G)p.r(C)p.r(G)p.r(A)p.r(G)p.r(C)p.r(U)p.r(G)p.r(C)p.r(U)p.r(U)p.r(A)p.r(U)p.r(U)p.r(T)p.r(T)}$$$RNA1{StrandType:ss}|RNA2{StrandType:as}$”: the target mRNA knockdown is 64%.

“RNA1{m(A)p.r(A)p.m(A)p.r(C)p.m(C)p.r(C)p.m(C)p.r(U)p.m(A)p.r(G)p.m(A)p.r(G)p.m(G)p.r(G)p.m(C)p.r(A)p.m(A)p.r(G)p.m(U)p.r(T)p.r(T)}|RNA2{r(A)p.r(C)p.r(U)p.r(U)p.r(G)p.r(C)p.r(C)p.r(C)p.r(U)p.r(C)p.r(U)p.r(A)p.r(G)p.r(G)p.r(G)p.r(G)p.r(U)p.r(U)p.r(U)p.r(T)p.r(T)}$$$RNA1{StrandType:ss}|RNA2{StrandType:as}$”: the target mRNA knockdown is 62%.

Regarding “RNA1{m(A)p.r(A)p.m(A)p.r(C)p.m(C)p.r(U)p.m(C)p.r(A)p.m(G)p.r(C)p.m(C)p.r(C)p.m(U)p.r(A)p.m(A)p.r(C)p.m(G)p.r(G)p.m(U)p.r(T)p.r(T)}|RNA2{r(A)p.m(C)p.m(C)p.r(G)p.r(U)p.r(U)p.r(A)p.r(G)p.r(G)p.r(G)p.m(C)p.r(U)p.r(G)p.r(A)p.r(G)p.r(G)p.r(U)p.r(U)p.r(U)p.r(T)p.r(T)}$$$RNA1{StrandType:ss}|RNA2{StrandType:as}$”, the target mRNA knockdown turned out to be 28%.

In the case of “RNA1{m(A)p.r(A)p.m(A)p.r(C)p.m(C)p.r(U)p.m(C)p.r(A)p.m(G)p.r(C)p.m(C)p.r(C)p.m(U)p.r(A)p.m(A)p.r(C)p.m(G)p.r(G)p.m(U)p.r(T)p.r(T)}|RNA2{r(A)p.r(C)p.r(C)p.r(G)p.r(U)p.r(U)p.r(A)p.r(G)p.r(G)p.r(G)p.r(C)p.r(U)p.r(G)p.r(A)p.r(G)p.r(G)p.r(U)p.r(U)p.r(U)p.r(T)p.r(T)}$$$RNA1{StrandType:ss}|RNA2{StrandType:as}$”, the target mRNA knockdown is 51%.

For “RNA1{m(A)p.r(A)p.m(A)p.r(C)p.m(G)p.r(A)p.m(G)p.r(A)p.m(G)p.r(A)p.m(G)p.r(C)p.m(C)p.r(C)p.m(A)p.r(C)p.m(C)p.r(U)p.m(U)p.r(T)p.r(T)}|RNA2{r(A)p.r(A)p.r(G)p.r(G)p.r(U)p.r(G)p.r(G)p.r(G)p.m(C)p.r(U)p.m(C)p.r(U)p.m(C)p.r(U)p.m(C)p.r(G)p.r(U)p.r(U)p.r(U)p.r(T)p.r(T)}$$$RNA1{StrandType:ss}|RNA2{StrandType:as}$”, the target mRNA knockdown turned out to be 37%.

Take “RNA1{m(A)p.r(A)p.m(A)p.r(C)p.m(G)p.r(U)p.m(G)p.r(A)p.m(C)p.r(U)p.m(U)p.r(U)p.m(G)p.r(G)p.m(U)p.r(U)p.m(C)p.r(C)p.m(U)p.r(T)p.r(T)}|RNA2{r(A)p.m(G)p.m(G)p.r(A)p.r(A)p.r(C)p.r(C)p.r(A)p.r(A)p.r(A)p.m(G)p.r(U)p.r(C)p.r(A)p.r(C)p.m(G)p.r(U)p.r(U)p.r(U)p.r(T)p.r(T)}$$$RNA1{StrandType:ss}|RNA2{StrandType:as}$”: the target mRNA knockdown was determined as 37%.
